Source: patent publication US20150086618A1, “PHOSPHOLIPID MICELLAR AND LIPOSOMAL COMPOSITIONS AND USES THEREOF” (THE BOARD OF TRUSTEES OF THE UNIVERSITY OF ILLINOIS, priority 2008, published 2015)
“Also recorded” adds a separate entry of the source.

Key:
[1] = Fluorescence anisotropy of GLP-1(7-36) in SSM / SSMM or saline; format: physicochemical; conditions: GLP-1(7-36) 125 μM in saline; n=3
Excerpt: Fluorescence anisotropy. […] The data indicated an increased viscosity of the peptide surrounding in the presence of SSM in contrast to saline.
This hypothesis was studied via determination of peptide fluorimetric anisotropy in the presence and absence of nanomicelles. This technique measures rigidity (or rotational freedom) of fluorophores by intensity of emitted fluorescence polarized parallel and perpendicular to that of excitation beam. A molecule that is restricted in its rotational motion due to viscous environment will emit fluorescence that is predominantly parallel to its excitation light source, giving a high anisotropy value.

[2] = system: ALI mice; assay: LPS-nebulization acute lung injury model, treatment after start of LPS (Example 7); format: in vivo; conditions: cardiac puncture at conclusion of treatment; LPS-exposed mice
Method: Mice are induced with acute lung injury (ALI) by treatment with lipopolysaccharide (LPS) nebulization (as described by Sadikot et al. […]: 873-8, 2001; Koay et al., Am. J. Respir. Cell Mol. Biol. 26: 572-8, 2002). […]
A dose of drug was administered subcutaneously (s.c.) 30 min after initialization of aerosolized LPS nebulization. […] All mice were sacrificed 4 hr after completion of nebulization. For each animal, bronchoalveolar lavage was carried out and the lungs were removed for analysis. Data from untreated (control) mice (no LPS nebulization or drug treatment) was also included in the data analysis for comparison.

[3] = Blood glucose in mice with LPS-induced ALI (Example 17); format: in vivo; conditions: LPS-exposed mice, GLP-1 1250 μg/kg, cardiac puncture at conclusion
Method: Blood was obtained by cardiac puncture at the conclusion of the treatment. Median glucose concentration was 109, 183, 157, and 125 mg/dl, respectively.

[4] = Hydrophilicity/hydrophobicity balance of peptide; format: physicochemical
[5] = α-helicity of LP17 and control peptide in saline and SSM; format: physicochemical; conditions: peptide 20 μM, SSM 5 mM
Method: The α-helicity of LP17 (20 μM) in saline and in SSM (5 mM) was tested. A control peptide ([…] (SEQ ID NO:2)) was also tested in saline and in SSM at the same concentrations.

[6] = system: TREM-1; assay: Mouse model of ALI induced by aerosolized LPS, LP17 (Example 13); format: in vivo, Wild-type mice; conditions: 3 nmol s.c.; free peptide 48 and 24 h before LPS, nanomicellar 48 h before LPS
Method: The efficacy of nanomicellar LP17 was tested in a mouse model of ALI induced by aerosolized LPS. Wild-type mice were treated with LP17 or control peptide and with LP17 or control peptide self-associated with nanomicelles (each, 3 nmol; a dose similar to that used in previous experiments). Free peptides were administered subcutaneously 48 and 24 h before administration of LPS. Peptides self-associated with nanomicelles were administered to the mice only 48 h before LPS nebulization. Mice were exposed to nebulized LPS in a dose of 1 mg/ml for 40 min as previously described (Sadikot et al., Am. J. Respir. Crit. Care Med. 164: 873-8, 2001.) Control mice were treated with nebulized endotoxin-free PBS. TREM-1 was induced in lungs of mice at 4 hours after treatment with LPS. After 4 h, a bronchoalveolar lavage was carried out to determine total cell count and neutrophil count. Lungs, liver, and spleen were harvested from the mice and frozen for RNA and protein extraction. Real-time RT-PCR was carried out to analyze fold induction in TREM-1 gene expression.

[7] = Dynamic light scattering (NICOMP) particle size of PxB, PxB with DSPE-PEG2000 and SSM in saline; format: physicochemical; conditions: for particle size distribution with scale 10-10,000 nm: 6.9 mM PxB in saline, 2 hours, 25° C.
Method: In order to determine the optimum peptide to lipid ratio of PxB to SSM, fluorescence spectroscopy and NICOMP analysis were carried out on PxB at varying concentrations in sterile normal saline (SNS) and with DSPE-PEG2000 at a fixed concentration. In these experiments, PxB Sulphate (MW […], Research Products International Corp, Cat: P40160-1.0, Lot#003746), DSPE-PEG2000 (MW 2811 g/mol, Lipoid, Cat#PE18:0/18:0/PEG 2000, Lot#899346-1/10), Methanol, and HEPES Buffer (pH˜7.4) were used. Controls: SSM (1 mM) and Samples: PxB-SSM (1:1000) were prepared.
Specifically, PxB (at various concentrations ranging from 0.5 mM to 6.9 mM) in sterile normal saline (SNS) was incubated with DSPE-PEG2000 (1 mM). Stock solutions of PxB and DSPE-PEG2000 were prepared and equilibrated for 2 hours. After the 2 hour equilibration, stock solutions were characterized by dynamic light scattering (DLS) using the NICOMP 380 Submicron Particle Sizer (Particle Sizing Systems, Inc. Santa Barbara, Calif.). […] A SSM sample (1 mM) (n=1) was prepared in saline alone for comparison with the PxB-SSM samples. Concurrent samples of PxB (0.5, 1.0, 2.3 and 6.9 mM) were prepared in saline alone or with SSM (DSPE-PEG2000, 1 mM) (n=8). The samples were measured for 30 minutes using DLS at approximately 2, 24, and 48 hours after time 0.

[8] = DSPE-PEG2000:PxB saturation ratio by fluorescence spectroscopy; format: physicochemical; conditions: at saturation point
Method: To determine the saturation point for DSPE-PEG2000 with PxB, fluorescence spectroscopy was carried out. PxB concentration was fixed at 50 μM and the concentration of DSPE-PEG2000 was varied to allow DSPE-PEG2000:PxB ratios of 1:1, 3:1, 6:1, 10:1, 20:1, 60:1, and 100:1. A stock solution of DSPE-PEG2000 was prepared and allowed to equilibrate at 25° C. in the dark under argon gas for two hours. A stock solution of PxB (100 μM) was prepared in HEPES Buffer. Samples were prepared by pipetting the appropriate amount of buffer and stock solutions into each vial. Fluorescence measurements were made after allowing each sample to equilibrate for 1 hour in the dark at 25° C. 400 μl of each sample was measured three times by the spectrofluorometer. The maximum intensity of each sample was recorded from the spectrofluorometer and analyzed using Microsoft Excel and Sigma Plot.
To fit a curve to the graph of the data the equation was used because its shape best fit the data, where
When the lipid to peptide ratio approaches infinity, a plateau is reached in terms of the fluorescence intensity and the equation becomes where yp is the height of the plateau. […]
Using this value as y, the lipid to peptide saturation point can be calculated by substituting the values into the equation and solving for x, […]

## glucagon-like peptide I (7-36) [GLP-1]
[1]
  fluorescence anisotropy: 0.045±0.012
[2]
  Median blood glucose concentration: 157 mg/dL
[3]
  Median glucose concentration: 157 mg/dL
[4]
  hydrophilicity/hydrophobicity balance: ~0.987

## LQVTDSGLYRCVIYHPP (SEQ ID NO: 1) (listed as Mus musculus) [LP17]
[5]
  percent α-helicity in SSM compared to saline: significantly greater
[6]
  expression of TREM-1 mRNA: attenuated

## polymyxin B [PxB]
[7]
  critical micelle concentration (CMC) of PxB: 1.0 to 2.3 mM
  particle size distribution with scale 10-10,000 nm: did not show peaks
[7]; 0.5 mM PxB, saline alone or with 1.0 mM DSPE-PEG2000, 24 hours
  particle size (diameter), INT-WT NICOMP: approximately 520 nm
[7]; 1.0 mM PxB, 24 hours
  particle size (diameter): 520 nm
[7]; 1.0 mM PxB, saline alone or with 1.0 mM DSPE-PEG2000, 2 hours
  particle size (diameter), INT-WT NICOMP: 240 nm
[7]; 2.3 mM PxB
  large aggregates observed or not: large aggregates were observed
[7]; 2.3 mM PxB, saline alone or with 1 mM DSPE-PEG2000, 2 hours
  particle size (diameter), INT-WT NICOMP: approximately 850 nm
[7]; listed as PxB sulfate
  particle size distribution with scale 10-10,000 nm: no large aggregates
[7]; 6.9 mM PxB, 24 and 48 hour time points
  average particle size (diameter): 517 nm
[7]; 6.9 mM PxB, 48 hours
  particle size (diameter), VOL-WT NICOMP: 4 nm
[7]; 6.9 mM PxB, saline alone or with 1 mM DSPE-PEG2000, 2 hours, listed as PxB sulfate
  particle size (diameter), INT-WT NICOMP: 640 nm
[7]; 6.9 mM PxB, saline alone or with 1 mM DSPE-PEG2000, 48 hours
  particle size (diameter), INT-WT NICOMP: 4 nm
[7]; 6.9 mM PxB, saline alone or with 1 mM DSPE-PEG2000, 48 hours, listed as PxB sulfate
  particle size (diameter), INT-WT NICOMP: 517 nm
[7]; all concentrations tested (0.5-6.9 mM), saline, 2-48 hours
  aggregation of PxB: showed aggregation of the peptide; also recorded: formed aggregates
[7]; range of concentrations tested, 10 μM to 23 mM
  PxB aggregate formation: aggregates formed
[8]
  molecules of PxB per micelle: 3.6
